In the NIST ThermoML archive (doi:10.1016/j.jct.2008.10.007):

How the values were obtained:
[1] = xn = mol fraction of the nth substance listed; settings: 298.15 K, 101 kPa, Liquid, Vibrating tube method
[2] = excess molar enthalpy (molar enthalpy of mixing); xn = mol fraction of the nth substance listed; settings: 298.15 K, 101 kPa, Liquid, Calvet calorimetry

CCCOC(=O)CCC [propyl butanoate] + ClCCCCCCl
Settings | excess molar enthalpy [kcal/mol] | mass density [kg/m3]
[1], x1 = 0.0527 | – | 1081.35
[1], x1 = 0.1057 | – | 1067.82
[1], x1 = 0.1578 | – | 1054.69
[1], x1 = 0.2095 | – | 1041.82
[1], x1 = 0.2663 | – | 1027.99
[1], x1 = 0.3782 | – | 1001.4
[1], x1 = 0.4944 | – | 974.66
[1], x1 = 0.6144 | – | 947.96
[1], x1 = 0.7409 | – | 920.76
[1], x1 = 0.804 | – | 907.58
[1], x1 = 0.8678 | – | 894.43
[1], x1 = 0.9363 | – | 880.61
[1], x1 = 1 | – | 867.9
[2], x1 = 0.0559 | -0.00311 | –
[2], x1 = 0.1285 | -0.0086 | –
[2], x1 = 0.2091 | -0.0167 | –
[2], x1 = 0.2908 | -0.0258 | –
[2], x1 = 0.3699 | -0.0351 | –
[2], x1 = 0.4417 | -0.0449 | –
[2], x1 = 0.4998 | -0.0504 | –
[2], x1 = 0.553 | -0.0526 | –
[2], x1 = 0.5757 | -0.0523 | –
[2], x1 = 0.6397 | -0.0497 | –
[2], x1 = 0.71 | -0.0445 | –
[2], x1 = 0.7828 | -0.0368 | –
[2], x1 = 0.8561 | -0.0265 | –
[2], x1 = 0.9304 | -0.0146 | –

CCCOC=O [propyl methanoate] + ClCCCl
Settings | excess molar enthalpy [kcal/mol] | mass density [kg/m3]
[1], x1 = 0.0502 | – | 1224.05
[1], x1 = 0.0994 | – | 1203.36
[1], x1 = 0.1495 | – | 1182.95
[1], x1 = 0.2004 | – | 1162.75
[1], x1 = 0.2543 | – | 1141.88
[1], x1 = 0.308 | – | 1121.58
[1], x1 = 0.3635 | – | 1101.24
[1], x1 = 0.4207 | – | 1080.82
[1], x1 = 0.4795 | – | 1060.31
[1], x1 = 0.5379 | – | 1040.49
[1], x1 = 0.599 | – | 1020.32
[1], x1 = 0.6634 | – | 999.69
[1], x1 = 0.7281 | – | 979.46
[1], x1 = 0.7928 | – | 959.73
[1], x1 = 0.8612 | – | 939.48
[1], x1 = 1 | – | 899.81
[2], x1 = 0.074 | -0.00956 | –
[2], x1 = 0.1687 | -0.021 | –
[2], x1 = 0.2733 | -0.0368 | –
[2], x1 = 0.3675 | -0.0478 | –
[2], x1 = 0.4473 | -0.0576 | –
[2], x1 = 0.5035 | -0.0607 | –
[2], x1 = 0.5082 | -0.0609 | –
[2], x1 = 0.5746 | -0.0598 | –
[2], x1 = 0.6509 | -0.0569 | –
[2], x1 = 0.7385 | -0.049 | –
[2], x1 = 0.8389 | -0.0344 | –
[2], x1 = 0.9272 | -0.0184 | –

CCCOC(=O)CC [propyl propanoate] + ClCCCCl
Settings | mass density [kg/m3]
[1], x1 = 1 | 875.61

CCCOC(=O)CC [propyl propanoate] + ClCCCCCl
Settings | mass density [kg/m3]
[1], x1 = 1 | 875.61

ClCCCCl [1,3-dichloropropane] + CCCOC(C)=O
Settings | excess molar enthalpy [kcal/mol] | mass density [kg/m3]
[1], x2 = 0.051 | – | 1160.75
[1], x2 = 0.1013 | – | 1143.09
[1], x2 = 0.1519 | – | 1125.74
[1], x2 = 0.2062 | – | 1107.55
[1], x2 = 0.2602 | – | 1089.75
[1], x2 = 0.314 | – | 1072.51
[1], x2 = 0.4262 | – | 1037.75
[1], x2 = 0.5391 | – | 1004.31
[1], x2 = 0.5986 | – | 987.32
[1], x2 = 0.6602 | – | 970.1
[1], x2 = 0.7227 | – | 953.06
[1], x2 = 0.758 | – | 943.63
[1], x2 = 0.7981 | – | 933.1
[1], x2 = 0.8553 | – | 918.23
[1], x2 = 0.934 | – | 898.35
[2], x2 = 0.054 | -0.00908 | –
[2], x2 = 0.1279 | -0.0206 | –
[2], x2 = 0.2091 | -0.0349 | –
[2], x2 = 0.2781 | -0.049 | –
[2], x2 = 0.3637 | -0.0624 | –
[2], x2 = 0.4401 | -0.0741 | –
[2], x2 = 0.5067 | -0.0813 | –
[2], x2 = 0.5223 | -0.0829 | –
[2], x2 = 0.572 | -0.0837 | –
[2], x2 = 0.6457 | -0.0779 | –
[2], x2 = 0.738 | -0.0679 | –
[2], x2 = 0.8364 | -0.0488 | –
[2], x2 = 0.931 | -0.0237 | –
